In general, Ki refers to a measure of affinity in units of concentration, obtained from inhibition or displacement. In general, inhibition refers to the percentage by which the read-out fell short of the control. A lower inhibition goes with little suppression.

Among the data in patent EP2669276A1 (Université de Strasbourg, priority 2012, dated 2013) are Ki and inhibition values, retold here.

SMILES strings stand for the structures.

One experiment deals with T1, hNPFF1 (Homo sapiens, UniProt Q9GZQ6).
T1 construct: The cDNA encoding the full-length human NPFFR1 and human NPFFR2; expressed in transfected cells
Nature of the experiment: Receptor binding assay with [3H]-FFRFamide on CHO cell membranes expressing SF-hNPFFR1. The note with it: [3H]-FFRF-NH2 radioligand, mean of at least two experiments; for Ki: read-out: Ki NPFF1. From the text:
(§1) The cDNA encoding the full-length human NPFFR1 and human NPFFR2 were subcloned into the pcDNA3 expression vector (Invitrogen, Cergy Pontoise, France) using standard molecular biology methods. A sequence encoding a signal sequence and a Flag epitope was fused to the 5' coding sequence of both hNPFFR1 and hNPFFR2 cDNA according to (Guan et al., 1992) resulting in a SF-hNPFFR1 and SF-hNPFFR2 constructs. These contructs were stably transfected into CHO cells.
(§2) Membranes from CHO cells stably expressing SF-hNPFFR1 or SF-hNPFFR2 were prepared as described (Becker et al., 1999). SF-hNPFFR1 or SF-hNPFFR2 membranes (10µg) were incubated for 30 min at 25 °C in a final volume of 0.5 ml containing 50 mM HEPES pH 7.4, 1 mM CaCl2, 1 mM MgCl2, 0.1% bovine serum albumin, 10 nM and 3 nM [^3H]-FFRFamide (CEA, Paris; specific activity, 13,6 Ci/mmol) for […], respectively and the ligands to be tested. Non-specific binding was determined in presence of 1 µM neuropeptide FF for SF-hNPFFR2 and 1 µM neuropeptide VF for SF -hNPFFR1. Typical total and nonspecific binding were 1200 and 200 dpm, respectively for SF-hNPFFR1 and SF-hNPFFR2. Incubation mixtures were rapidly filtered and washed with 50 mM HEPES pH 7.4, 1 mM CaCl2, 1 mM MgCl2, on 96 wells GF/B unifilter (Perkin Elmer). Unifilter plates where then dryied for 1hr at 65°C. Bound radioactivity was determined by scintillation counting with 30 µl of scintillation cocktail (O-scint, Perkin Elmer) per well on a Topcount scintillation apparatus (Perkin Elmer).

The target of the next experiment is T2, hNPFF2 (Homo sapiens, UniProt Q9Y5X5).
T2 construct: The cDNA encoding the full-length human NPFFR1 and human NPFFR2; expressed in transfected cells
Nature of the experiment: Receptor binding assay with [3H]-FFRFamide on CHO cell membranes expressing SF-hNPFFR2. Particulars: [3H]-FFRF-NH2 radioligand, mean of at least two experiments; for Ki: read-out: Ki NPFF2.
Description: as §1, §2

T1 sequence (Q9GZQ6 whole entry): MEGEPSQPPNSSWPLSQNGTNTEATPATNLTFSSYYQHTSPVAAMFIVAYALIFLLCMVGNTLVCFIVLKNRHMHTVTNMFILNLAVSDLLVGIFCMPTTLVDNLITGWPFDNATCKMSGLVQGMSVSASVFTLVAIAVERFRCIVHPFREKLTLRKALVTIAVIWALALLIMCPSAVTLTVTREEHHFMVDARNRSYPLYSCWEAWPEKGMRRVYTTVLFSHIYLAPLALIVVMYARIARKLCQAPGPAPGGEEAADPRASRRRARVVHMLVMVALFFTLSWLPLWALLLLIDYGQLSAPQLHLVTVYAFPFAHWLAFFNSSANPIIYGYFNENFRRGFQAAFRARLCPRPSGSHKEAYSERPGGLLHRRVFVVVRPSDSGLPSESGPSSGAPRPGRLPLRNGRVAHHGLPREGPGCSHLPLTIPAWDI
T2 sequence (Q9Y5X5 whole entry): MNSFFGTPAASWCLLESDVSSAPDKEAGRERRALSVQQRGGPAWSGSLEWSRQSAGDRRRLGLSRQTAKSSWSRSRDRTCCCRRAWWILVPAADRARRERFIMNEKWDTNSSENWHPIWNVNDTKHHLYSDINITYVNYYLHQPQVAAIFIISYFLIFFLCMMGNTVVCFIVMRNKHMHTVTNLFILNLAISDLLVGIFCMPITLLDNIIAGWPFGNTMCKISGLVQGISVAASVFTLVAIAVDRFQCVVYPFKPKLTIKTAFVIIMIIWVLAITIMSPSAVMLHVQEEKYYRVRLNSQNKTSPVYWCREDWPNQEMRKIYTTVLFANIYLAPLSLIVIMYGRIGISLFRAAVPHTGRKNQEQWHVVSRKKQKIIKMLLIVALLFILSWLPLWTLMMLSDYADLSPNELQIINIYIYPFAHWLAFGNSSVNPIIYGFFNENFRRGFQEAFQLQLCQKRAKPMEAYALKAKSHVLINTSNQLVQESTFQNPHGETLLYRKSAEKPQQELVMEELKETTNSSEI

Take `O=C(N[C@@H](CCCN1CCC(N2CCCCC2)CC1)C(=O)NCCc1ccccc1)c1ccccc1-c1ccccc1` [Compound 33, (2S)-N-(2-phenylethyl)-2-[(2-phenylphenyl)formamido]-5-[4-(piperidin-1-yl)piperidin-1-yl]pentanamide]: on hNPFF1, the inhibition constant (Ki) turned out to be 71 ± 11 nM. In addition, on hNPFF2, testing at 0.5 µM gave an inhibition of 13 ± 11% and 5 µM produced 55 ± 15% inhibition.
Consider `COc1ccc(CNCCC[C@H](NC(=O)c2ccccc2-c2ccccc2)C(=O)NCCc2ccccc2)cc1` [Compound 10, (2S)-5-{[(4-methoxyphenyl)methyl]amino}-N-(2-phenylethyl)-2-[(2-phenylphenyl)formamido]pentanamide], for which the Ki at hNPFF1 was found to be 30 ± 2 nM. For the same molecule, on hNPFF2, the inhibition at 0.5 µM amounted to 11 ± 20% and the inhibition at 5 µM is 40 ± 2%.
For `CN(CCC[C@H](NC(=O)c1ccccc1-c1ccccc1)C(=O)NCCc1ccccc1)Cc1ccccc1Cl` [Compound 19, (2S)-5-{[(2-chlorophenyl)methyl](methyl)amino}-N-(2-phenylethyl)-2-[(2-phenylphenyl)formamido]pentanamide], at hNPFF1, the inhibition at 0.5 µM was determined as 16 ± 5% and 5 µM produced 60 ± 2% inhibition. For the same molecule, at hNPFF2, testing at 0.5 µM gave an inhibition of 0% and the inhibition at 5 µM worked out at 39 ± 7%.
On the same counts, the results for `O=C(N[C@H](CCCN1CCc2ccccc2C1)C(=O)NCCc1ccccc1)c1ccccc1-c1ccccc1` [Compound 25, (2R)-N-(2-phenylethyl)-2-[(2-phenylphenyl)formamido]-5-(1,2,3,4-tetrahydroisoquinolin-2-yl)pentanamide] are 14 ± 1%, 51 ± 14%, 0% and 16 ± 5%.
The like results for `O=C(N[C@@H](CCCN1CCC(Cc2ccccc2)CC1)C(=O)NCCc1ccccc1)c1ccccc1` [Compound 40, (2S)-5-(4-benzylpiperidin-1-yl)-N-(2-phenylethyl)-2-(phenylformamido)pentanamide] were, in that order, 19 ± 3%, 32 ± 1%, 5 ± 3% and 19 ± 1%.
As for `O=C(N[C@@H](CCCN1CCC(c2ccccc2)CC1)C(=O)NCCc1ccccc1)c1ccccc1-c1ccccc1` [Compound 31, (2S)-N-(2-phenylethyl)-2-[(2-phenylphenyl)formamido]-5-(4-phenylpiperidin-1-yl)pentanamide], at hNPFF1, the Ki was found to be 485 ± 35 nM. At hNPFF2, this molecule showed an inhibition at 0.5 µM of 0% and an inhibition at 5 µM of 45 ± 7%.
Regarding `O=C(N[C@@H](CCCN1CCC(Cc2ccccc2)CC1)C(=O)NCCc1ccccc1)c1ccccc1-c1ccccc1` [Compound 32, (2S)-5-(4-benzylpiperidin-1-yl)-N-(2-phenylethyl)-2-[(2-phenylphenyl)formamido]pentanamide], the Ki was 400 nM on hNPFF1 and 34 nM on hNPFF2.
On to `CC(C)CNCCC[C@H](NC(=O)c1ccccc1-c1ccccc1)C(=O)NCCc1ccccc1` [Compound 4, (2S)-5-[(2-methylpropyl)amino]-N-(2-phenylethyl)-2-[(2-phenylphenyl)formamido]pentanamide], for which the figures for the inhibition at 0.5 µM at hNPFF1 and at hNPFF2 were 14 ± 1% and 2 ± 6%, respectively. In addition, the inhibition at 5 µM on hNPFF1 amounted to 23%; at hNPFF2 it was 7 ± 15%.
For the molecule `COc1ccccc1CNCCC[C@H](NC(=O)c1ccccc1-c1ccccc1)C(=O)NCCc1ccccc1` [Compound 8, (2S)-5-{[(2-methoxyphenyl)methyl]amino}-N-(2-phenylethyl)-2-[(2-phenylphenyl)formamido]pentanamide], the Ki was determined as 23 ± 4 nM at hNPFF1 and 103 ± 44 nM on hNPFF2.
For `O=C(NCCc1ccccc1)[C@H](CCCN1CCC(Cc2ccccc2)CC1)NC(=O)C12CC3CC(CC(C3)C1)C2` [Compound 44, (2S)-2-(adamantan-1-ylformamido)-5-(4-benzylpiperidin-1-yl)-N-(2-phenylethyl)pentanamide], the Ki at hNPFF1 stood at 603 ± 139 nM; at hNPFF2, 188 ± 6 nM.
In the case of `COc1ccc(CN(C)CCC[C@H](NC(=O)c2ccccc2-c2ccccc2)C(=O)NCCc2ccccc2)cc1` [Compound 21, (2S)-5-{[(4-methoxyphenyl)methyl](methyl)amino}-N-(2-phenylethyl)-2-[(2-phenylphenyl)formamido]pentanamide], on hNPFF1, the inhibition at 0.5 µM was 12 ± 10% and the inhibition at 5 µM turned out to be 58 ± 14%. At hNPFF2, this molecule returned an inhibition at 0.5 µM of 0% and an inhibition at 5 µM of 47%.
`CC(=O)N1CCN(CCC[C@H](NC(=O)c2ccccc2-c2ccccc2)C(=O)NCCc2ccccc2)CC1` [Compound 35, (2S)-5-(4-acetylpiperazin-1-yl)-N-(2-phenylethyl)-2-[(2-phenylphenyl)formamido]pentanamide]: the Ki at hNPFF1 is 319 ± 13 nM. On hNPFF2, this molecule registered an inhibition at 0.5 µM of 0% and an inhibition at 5 µM of 0%.
As for `O=C(N[C@@H](CCCCNCc1ccccc1)C(=O)NCCc1ccccc1)c1ccccc1-c1ccccc1` [Compound 6, (2S)-6-(benzylamino)-N-(2-phenylethyl)-2-[(2-phenylphenyl)formamido]hexanamide], the results for the Ki on hNPFF1 and at hNPFF2 were 210 ± 39 nM and 720 ± 59 nM, respectively.
On hNPFF1, `COc1ccccc1CN(C)CCC[C@H](NC(=O)c1ccccc1-c1ccccc1)C(=O)NCCc1ccccc1` [Compound 16, (2S)-5-{[(2-methoxyphenyl)methyl](methyl)amino}-N-(2-phenylethyl)-2-[(2-phenylphenyl)formamido]pentanamide] registered an inhibition at 0.5 µM of 9 ± 4% and an inhibition at 5 µM of 50 ± 10%. At hNPFF2, this molecule came in with an inhibition at 0.5 µM of 6 ± 13% and an inhibition at 5 µM of 47 ± 1%.
In the case of `CN(CCC[C@H](NC(=O)c1ccccc1-c1ccccc1)C(=O)NCCc1ccccc1)C1CCN(Cc2ccccc2)CC1` [Compound 38, (2S)-5-[(1-benzylpiperidin-4-yl)(methyl)amino]-N-(2-phenylethyl)-2-[(2-phenylphenyl)formamido]pentanamide], the Ki stood at 85 ± 20 nM at hNPFF1 and 40 ± 23 nM on hNPFF2.
As to `COc1ccc(-c2ccccc2C(=O)N[C@@H](CCCN2CCCCC2)C(=O)NCCCc2ccccc2)cc1` [Compound 29, (2S)-2-{[2-(4-methoxyphenyl)phenyl]formamido}-N-(3-phenylpropyl)-5-(piperidin-1-yl)pentanamide], on hNPFF1, the Ki stood at 170 ± 70 nM. At hNPFF2, this molecule yielded an inhibition at 0.5 µM of 0% and an inhibition at 5 µM of 23 ± 5%.
Consider `O=C(N[C@@H](CCCNCc1ccccc1)C(=O)NCCc1ccccc1)c1ccccc1-c1ccccc1` [Compound 1, (2S)-5-(benzylamino)-N-(2-phenylethyl)-2-[(2-phenylphenyl)formamido]pentanamide], for which the inhibition constant (Ki) at hNPFF1 was determined as 240 ± 38 nM; on hNPFF2, 2300 ± 66 nM.
At hNPFF1, `O=C(C=C(c1ccccc1)c1ccccc1)N[C@@H](CCCN1CCC(Cc2ccccc2)CC1)C(=O)NCCc1ccccc1` [Compound 45, (2S)-5-(4-benzylpiperidin-1-yl)-2-(3,3-diphenylprop-2-enamido)-N-(2-phenylethyl)pentanamide] displayed an inhibition at 0.5 µM of 10 ± 18% and an inhibition at 5 µM of 12 ± 2%. Moreover, on hNPFF2, 0.5 µM produced 23 ± 25% inhibition and the inhibition at 5 µM amounted to 25 ± 19%.
On the same counts, the results for `O=C(N[C@@H](CCCNCc1ccccc1Cl)C(=O)NCCc1ccccc1)c1ccccc1-c1ccccc1` [Compound 12, (2S)-5-{[(2-chlorophenyl)methyl]amino}-N-(2-phenylethyl)-2-[(2-phenylphenyl)formamido]pentanamide] are 32 ± 1%, 74 ± 2%, 25 ± 5% and 64 ± 3%.
Turning to `O=C(N[C@H](CCCNCc1ccccc1)C(=O)NCCc1ccccc1)c1ccccc1-c1ccccc1` [Compound 2, (2R)-5-(benzylamino)-N-(2-phenylethyl)-2-[(2-phenylphenyl)formamido]pentanamide], the Ki on hNPFF1 came out at 480 ± 33 nM; on hNPFF2, 910 ± 94 nM.
Take `O=C(N[C@@H](CCCN1CCC(Cc2ccccc2)CC1)C(=O)NCCc1ccccc1)c1ccc2ccccc2n1` [Compound 42, (2S)-5-(4-benzylpiperidin-1-yl)-N-(2-phenylethyl)-2-(quinolin-2-ylformamido)pentanamide]: at hNPFF1, the inhibition at 0.5 µM turned out to be 11 ± 15% and the inhibition at 5 µM was 72 ± 11%. At hNPFF2, this molecule registered an inhibition at 0.5 µM of 4 ± 10% and an inhibition at 5 µM of 47%.
On the same counts, the results for `COc1cccc(CN(C)CCC[C@H](NC(=O)c2ccccc2-c2ccccc2)C(=O)NCCc2ccccc2)c1` [Compound 22, (2S)-5-{[(3-methoxyphenyl)methyl](methyl)amino}-N-(2-phenylethyl)-2-[(2-phenylphenyl)formamido]pentanamide] are 7 ± 6%, 50 ± 2%, 6% and 39 ± 2%.
